# PMC12649549, “Sequence Permutation Generated Lysine and Tryptophan-Rich Antimicrobial Peptides with Enhanced Therapeutic Index” (Antibiotics, 2025)
# Read-outs that look alike come from different tables or passages of the source.
# Tests used:
# [1] = tested on: A. baumannii 14B00100 (Acinetobacter sp., BCRC number 14B0100)
# How it was run: (§1)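 Salt and pH tolerance was assessed by determining MICs in LYM medium containing 50–300 mM NaCl, 0.5–2.5 mM MgCl2, or at pH 4.5–6.5, alongside MH broth. The inoculum was 5 × 10^5 CFU/mL.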
# S. aureus ATCC 33591 = tested on: S. aureus ATCC 33591
# How it was run: as §1
# S. aureus ATCC 33593 = tested on: S. aureus ATCC 33593
# How it was run: as §1
# S. aureus ATCC 33592 = tested on: S. aureus ATCC 33592
# Method: The antibacterial and salt-resistant activity of the peptides was tested using Escherichia coli (ATCC 25922), Pseudomonas aeruginosa Migula (ATCC 27853), Acinetobacter sp. (BCRC number 14B0091, BCRC number 14B0097, and BCRC number 14B0100), and Staphylococcus aureus sp. strains (ATCC 25923, ATCC 33591, ATCC 33592, ATCC 33593, and ATCC 6538). All bacteria were obtained from the Food Industry Research and Development Institute (Hsinchu, Taiwan) and cultured in sterilized Müller-Hinton (MH) broth at 37 °C and 200 rpm for 8 h. The inoculum concentrations were determined by measuring the optical density at 600 nm (OD 600 = 1, approximately 10^8 CFU/mL) using an Ultrospec 2100 pro UV-Visible spectrophotometer (Biochrom Ltd., Cambridge, UK) after 8 h of culture.
# The antibacterial activities of the peptides in Müller-Hinton (MH) broth and modified LYM broth were determined using the standard broth microdilution method as per Clinical and Laboratory Standards Institute (CLSI) guidelines. The LYM broth was prepared with specific components and adjusted to different conditions, including varying concentrations of NaCl and MgCl2, and different pH levels. To prepare the LYM broth, 5.4 mM KCl, 5.6 mM Na2HPO4, 0.5 mM MgSO4, and 1.0 mM sodium citrate were added. Additionally, 0.4 mg of ZnCl2, 2.0 mg of FeCl3·6H2O, 0.1 mg of CuSO4·5H2O, 0.1 mg of MnSO4·H2O, 0.1 mg of Na2B4O7∙10H2O, 700 mg of amino acid mixtures without tryptophan (Takara Bio Inc., San Jose, CA, USA), and 20 mg of L-tryptophan were added per liter of medium. The pH was adjusted to 7.4, and a vitamin mixture (100X, Sigma) and glucose concentration of 2% were added. […] Bacterial strains were incubated in MH broth overnight, regrown, and diluted to a final concentration of 5 × 10^5 CFU/mL. Peptides were added to each well at final concentrations of 50, 25, 12.5, 6.25, 3.13, 1.56, and 0.78 µg/mL, and 99 µL of diluted microbes was loaded into each well of a polypropylene 96-well plate. […] The Morpheus HeatMap software (https://software.broadinstitute.org/morpheus/) was used to display MIC values on a color scale. All experiments were independently repeated three times.
# Gram-positive bacteria = experiment: Geometric mean MIC and therapeutic index, Gram-positive bacteria; format: cell-based; settings: Gram-positive bacteria
# Method: In this study, we aimed to investigate the potential of W5K series peptides for therapeutic use. To evaluate their efficacy for antibacterial therapy, we used the Therapeutic Index (TI) as a measure of their cell selectivity. The TI was calculated as the ratio of the concentration causing 10% hemolysis of human red blood cells (HC10) to the geometric mean minimum inhibitory concentration (GM) of the peptides against both Gram-negative and Gram-positive bacteria. This parameter was used to quantitatively assess the balance between antibacterial potency and cytotoxicity among the W5K derivatives.
# The antibacterial activities of the peptides in Müller-Hinton (MH) broth and modified LYM broth were determined using the standard broth microdilution method as per Clinical and Laboratory Standards Institute (CLSI) guidelines. The LYM broth was prepared with specific components and adjusted to different conditions, including varying concentrations of NaCl and MgCl2, and different pH levels. To prepare the LYM broth, 5.4 mM KCl, 5.6 mM Na2HPO4, 0.5 mM MgSO4, and 1.0 mM sodium citrate were added. Additionally, 0.4 mg of ZnCl2, 2.0 mg of FeCl3·6H2O, 0.1 mg of CuSO4·5H2O, 0.1 mg of MnSO4·H2O, 0.1 mg of Na2B4O7∙10H2O, 700 mg of amino acid mixtures without tryptophan (Takara Bio Inc., San Jose, CA, USA), and 20 mg of L-tryptophan were added per liter of medium. The pH was adjusted to 7.4, and a vitamin mixture (100X, Sigma) and glucose concentration of 2% were added. For different conditions of LYM broth, NaCl concentrations of 300, 200, 150, and 50 mM, MgCl2 concentrations of 2.5, 1.5, and 0.5 mM, and pH levels of 6.5, 5.5, and 4.5 were adjusted. Bacterial strains were incubated in MH broth overnight, regrown, and diluted to a final concentration of 5 × 10^5 CFU/mL. Peptides were added to each well at final concentrations of 50, 25, 12.5, 6.25, 3.13, 1.56, and 0.78 µg/mL, and 99 µL of diluted microbes was loaded into each well of a polypropylene 96-well plate. […] The Morpheus HeatMap software (https://software.broadinstitute.org/morpheus/) was used to display MIC values on a color scale. All experiments were independently repeated three times.
# [2] = LYM broth, 0 mM NaCl, 16 h, 37 °C
# [3] = LYM broth, 50 mM NaCl, 16 h, 37 °C
# [4] = LYM broth, 100 mM NaCl, 16 h, 37 °C
# [5] = LYM broth, 200 mM (NaCl), 16 h, 37 °C
# [6] = LYM broth, 300 mM (NaCl), 16 h, 37 °C
# [7] = MH broth, 5 × 10^5 CFU/mL, 16 h, 37 °C, repeated three times
substance,measurement,setting,value
Ac-KWRKWLKWLAKKK-NH2 [Peptide W5K01],MIC,[1]; [2],1.56 µg/mL
same,MIC,"[1]; LYM broth, 0.5 mM MgCl2",1.56 µg/mL
same,MIC,"[1]; LYM broth, 1.5 mM MgCl2",1.56 µg/mL
same,MIC,"[1]; LYM broth, 2.5 mM MgCl2",3.13 µg/mL
same,MIC,[1]; [3],1.56 µg/mL
same,MIC,[1]; [4],3.13 µg/mL
same,MIC,[1]; [5],3.13 µg/mL
same,MIC,[1]; [6],6.25 µg/mL
same,MIC,"[1]; LYM broth, pH 4.5",1.56 µg/mL
same,MIC,"[1]; LYM broth, pH 5.5",1.56 µg/mL
same,MIC,"[1]; LYM broth, pH 6.5",1.56 µg/mL
same,MIC,[1]; [7],6.25 µg/mL
same,MIC,S. aureus ATCC 33591; [2],6.25 µg/mL
same,MIC,"S. aureus ATCC 33591; LYM broth, 0.5 mM MgCl2",6.25 µg/mL
same,MIC,"S. aureus ATCC 33591; LYM broth, 1.5 mM MgCl2",6.25 µg/mL
same,MIC,"S. aureus ATCC 33591; LYM broth, 2.5 mM MgCl2",6.25 µg/mL
same,MIC,S. aureus ATCC 33591; [3],12.5 µg/mL
same,MIC,S. aureus ATCC 33591; [4],12.5 µg/mL
same,MIC,S. aureus ATCC 33591; [5],25 µg/mL
same,MIC,S. aureus ATCC 33591; [6],50 µg/mL
same,MIC,"S. aureus ATCC 33591; LYM broth, pH 4.5",6.25 µg/mL
same,MIC,"S. aureus ATCC 33591; LYM broth, pH 5.5",6.25 µg/mL
same,MIC,"S. aureus ATCC 33591; LYM broth, pH 6.5",3.13 µg/mL
same,MIC,S. aureus ATCC 33591; [7],50 µg/mL
same,MIC,S. aureus ATCC 33593; [2],6.25 µg/mL
same,MIC,"S. aureus ATCC 33593; LYM broth, 0.5 mM MgCl2",6.25 µg/mL
same,MIC,"S. aureus ATCC 33593; LYM broth, 1.5 mM MgCl2",6.25 µg/mL
same,MIC,"S. aureus ATCC 33593; LYM broth, 2.5 mM MgCl2",6.25 µg/mL
same,MIC,S. aureus ATCC 33593; [3],6.25 µg/mL
same,MIC,S. aureus ATCC 33593; [4],12.5 µg/mL
same,MIC,S. aureus ATCC 33593; [5],25 µg/mL
same,MIC,S. aureus ATCC 33593; [6],50 µg/mL
same,MIC,"S. aureus ATCC 33593; LYM broth, pH 4.5",6.25 µg/mL
same,MIC,"S. aureus ATCC 33593; LYM broth, pH 5.5",3.13 µg/mL
same,MIC,"S. aureus ATCC 33593; LYM broth, pH 6.5",3.13 µg/mL
same,MIC,S. aureus ATCC 33593; [7],50 µg/mL
same,MIC,S. aureus ATCC 33592; [2],6.25 µg/mL
same,MIC,"S. aureus ATCC 33592; LYM broth, 0.5 mM MgCl2",6.25 µg/mL
same,MIC,"S. aureus ATCC 33592; LYM broth, 1.5 mM MgCl2",6.25 µg/mL
same,MIC,"S. aureus ATCC 33592; LYM broth, 2.5 mM MgCl2",12.5 µg/mL
same,MIC,S. aureus ATCC 33592; [3],6.25 µg/mL
same,MIC,S. aureus ATCC 33592; [4],12.5 µg/mL
same,MIC,S. aureus ATCC 33592; [5],25 µg/mL
same,MIC,S. aureus ATCC 33592; [6],50 µg/mL
same,MIC,"S. aureus ATCC 33592; LYM broth, pH 4.5",6.25 µg/mL
same,MIC,"S. aureus ATCC 33592; LYM broth, pH 5.5",6.25 µg/mL
same,MIC,"S. aureus ATCC 33592; LYM broth, pH 6.5",6.25 µg/mL
same,MIC,S. aureus ATCC 33592; [7],50 µg/mL
same,GM G+ (geometric mean of the MIC values),"Gram-positive bacteria; MH broth, MIC >50 µg/mL counted as 100 µg/mL",28.7 µg/mL
same,Therapeutic Index (TI) G+,Gram-positive bacteria; HC10/GM,2.5
